Legend:
Src = Src (Homo sapiens, UniProt P12931); test: Cell-free kinase screen; assay type: biochemical; details: 10 μM complex
Description: (§1) FIG. 9. Effects of [L2Zn3]^6+ and [L2Cu3]^6+ on the activity of purified human kinases. a,b, Percentage inhibition of the indicated kinases by [L2Zn3]^6+ (a) and [L2Cu3]^6+ (b) respectively at a concentration of 10 μM; full results are presented in the ESI. c,d, Kinases whose activity is stimulated by [L2Zn3]^6+ (c) or [L2Cu3]^6+ (d) complexes. e,f, Kinome map showing kinases inhibited (red) or stimulated (green) by [L2Zn3]^6+ (e) or [L2Cu3]^6+ (f). III ustration reproduced courtesy of Cell Signalling Technology Inc (www.cellsignal.com)
(§2) FIG. 16. The effect of [L2Zn3]^6+ and [L2Cu3]^6+ on the activity of recombinant human kinases. The compounds were submitted to the MRC Protein Phosphorylation and Ubiquitination Unit International Centre for Kinase Profiling (University of Dundee) and tested at a concentration of 10 μM against 140 human kinases (Premier Screen).
(§3) Given the ability of the Zn^2+ complex to dephosphorylate amino acids serine, tyrosine and threonine (FIG. 6) and the Cu^2+ complex to bind phenyl phosphate (FIG. 3), it was examined whether the complexes affect the activity of kinases. This was assessed in a cell-free screen of 140 kinases using purified recombinant human kinases and substrate peptides incubated in the presence of ^33P ATP and 10 μM complex or solvent control. […]

H460 tumors = test: Chick embryo chorioallantoic membrane (CAM) assay, in ovo efficacy; assay type: in vivo, human tumor cells on chick embryo CAM; details: for doses giving statistically significant regression of tumor growth (mean tumor weight at E18) / doses giving reduction of tumor growth comparable to SoC: L2Zn3 54, 108, 216 μM, L2Cu3 42, 84, 168 μM; for doses giving statistically significant regression of tumor growth (mean tumor weight at E18): 100 μl on tumor graft at E11, E13, E15, E17; for doses giving reduction of tumor growth comparable to SoC: SoC paclitaxel; for H460 metastatic load in the lower CAM (qPCR for Alu sequences): all three tested doses
Description: FIG. 21. Activity of [L2Cu3]^6+ and [L2Zn3]^6+ against primary H460 tumors. The results presented represent the mean tumour weight±SEM following treatment at 3 different doses of [L2Cu3]^6+ and [L2Zn3]^6+: L2Zn3 [1]=54 μM, L2Zn3 [2]=108 μM, L2Zn3 [3]=216 μM; L2Cu3 [1]=42 μM, L2Cu3[2]=84 μM, L2Cu3[3]=168 μM. SoC paclitaxel. Statistical analysis by one way ANOVA (*): 0.05≥p value >0.01; (**): 0.01≥p value >0.001; (***): 0.001≥p value; (****): 0.0001≥p value. Number per experimental group n=10-13.
FIG. 22. Evaluation of the effects of [L2Cu3]^6+ and [L2Zn3]^6+ on primary H460 metastasis to the lower CAM. Relative ALU expression (relative to chicken GAPDH) as a quantitive marker of metastasis of human cells to the lower CAM. L2Zn3 [1]=54 μM, L2Zn3 [2]=108 μM, L2Zn3 [3]=216 μM; L2Cu3 [1]=42 μM, L2Cu3[2]=84 μM, L2Cu3[3]=168 μM. SoC paclitaxel. Relative expression ±SEM. Statistical analysis by one way ANOVA (*): 0.05≥p value >0.01; (**): 0.01≥p value >0.001; (***): 0.001≥p value; (****): 0.0001≥p value. Number per experimental group n=7-8.
[L2Cu3]^6+ and [L2Zn3]^6+ were evaluated at three different doses for in ovo anti-cancer activity, toxicity and anti-metastatic activity against tumors initiated from three different human cancer cell line models (H460, HT29, HCT116), in the chick embryo chorioallantoic membrane (CAM) assay.
Each compound was provided to the contract research organisation (CRO) Inovotion (La Tronche, France) conducting the in ovo study, as a powder pre-weighed in single vials (2 equivalents of ligand, 3 equivalents of metal; and stored at room temperature). Before use, this was then dissolved in DMSO to 50 mM to generate a stock solution and further freshly diluted in RPM11640 or McCoys aqueous cell culture media for administration.
A standard of care (SoC) drug for the particular tumour type was tested concurrently as a comparative control for in vivo efficacy and toxicity evaluation. A solvent control served as a negative control for both SoC and experimental compounds.
10^6 tumor cells (H460, HT29 or HCT116) were grafted onto the upper chorioallantoic membrane (CAM) of the developing chick embryo on embryonic day 9 (E9). Access to the upper CAM was through a small hole drilled through the eggshell of fertilized White Leghorn eggs (into the air sac) on E9 (15 eggs per experimental group).
100 μl of freshly prepared experimental compound, vehicle control or standard-of-care (SoC) drug at their working concentrations were pipetted onto the tumor graft at E11, E13, E15 and E17. On day E18, the upper CAM (with tumor) was removed, washed by PBS buffer and then directly transferred in PFA (fixation for 48 hrs). After that, tumors were carefully cut away from normal CAM tissue and weighed.
On day E18, a 1 cm^2 portion of the lower CAM was collected (n=8 per group), stored at −20° C. and later processed to extract DNA. Samples were analysed for human genomic DNA (qPCR for Alu sequences) as a quantitative marker of tumor metastasis to the lower CAM.

140 human kinases = test: Cell-free screen of 140 kinases (33P ATP, Premier Screen); assay type: biochemical; details: 10 μM complex
Description: as §1, §2, §3

Sequence of Src (P12931 whole entry): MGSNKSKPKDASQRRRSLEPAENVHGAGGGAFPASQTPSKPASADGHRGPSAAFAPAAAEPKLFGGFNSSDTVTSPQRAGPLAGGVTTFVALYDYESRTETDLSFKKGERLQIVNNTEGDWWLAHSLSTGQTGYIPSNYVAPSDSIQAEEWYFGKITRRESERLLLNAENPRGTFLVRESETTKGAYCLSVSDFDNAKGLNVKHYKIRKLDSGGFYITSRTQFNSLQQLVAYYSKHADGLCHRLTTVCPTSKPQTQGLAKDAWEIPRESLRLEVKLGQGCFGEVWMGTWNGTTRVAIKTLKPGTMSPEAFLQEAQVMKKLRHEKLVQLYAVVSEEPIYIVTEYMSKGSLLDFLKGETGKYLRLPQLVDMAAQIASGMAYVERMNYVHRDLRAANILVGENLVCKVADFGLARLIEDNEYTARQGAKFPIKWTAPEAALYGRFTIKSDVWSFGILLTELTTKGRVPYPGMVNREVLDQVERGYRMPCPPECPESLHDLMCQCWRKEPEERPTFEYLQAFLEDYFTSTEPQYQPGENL

SMILES | effect on Src kinase activity in the kinase screen (Src) | doses giving statistically significant regression of tumor growth (mean tumor weight at E18) (H460 tumors) | doses giving reduction of tumor growth comparable to SoC (H460 tumors) | H460 metastatic load in the lower CAM (qPCR for Alu sequences) (H460 tumors) | inhibition of the most potently inhibited kinases (140 human kinases) [%]
[Cu+2].[Cu+2].[Cu+2].c1ccc(-c2csc(NCCN(CCNc3nc(-c4ccccn4)cs3)CCNc3nc(-c4ccccn4)cs3)n2)nc1.c1ccc(-c2csc(NCCN(CCNc3nc(-c4ccccn4)cs3)CCNc3nc(-c4ccccn4)cs3)n2)nc1 [[L2Cu3]^6+] | activity was increased | the two highest tested doses | the highest dose | no statistically significant metastatic regression | ~100
[Zn+2].[Zn+2].[Zn+2].c1ccc(-c2csc(NCCN(CCNc3nc(-c4ccccn4)cs3)CCNc3nc(-c4ccccn4)cs3)n2)nc1.c1ccc(-c2csc(NCCN(CCNc3nc(-c4ccccn4)cs3)CCNc3nc(-c4ccccn4)cs3)n2)nc1 [[L2Zn3]^6+] | activity was increased | all three tested doses | all three tested doses | Statistically significant decreases | ~100

— patent US20230322815A1, “NOVEL COMPOUNDS AND THERAPEUTIC USES THEREOF” (University of Huddersfield, priority 2020, published 2023)
